Source: patent US20020173640A1, “ADAM polynucleotides, polypeptides, and antibodies” (Human Genome Sciences, Inc., priority 1999, published 2002)

Legend:
[1] = test system: protease inhibitor-resistant viruses; conditions: cited from earlier work
[2] = test system: lamivudine-resistant isolates; conditions: cited from earlier work
M24 cells = conditions: murine metastasis model; cited from earlier work
[3] = test system: human metastatic melanoma (M24 cells); conditions: cited from earlier work
alpha-2 macroglobulin = assay: metal-dependant proteolysis of alpha-2 macroglobulin; type: biochemical; conditions: see Example 19
[4] = test system: rat tail tendon type I gelatin; assay: Substrate specificity: gelatin; type: biochemical
Procedure: (§1) The following assay(s) are useful in determining the presence of protease activity. Gelatin and casein zymography are performed essentially as described (Heusen et al., Anal. Biochem., 102:196-202 (1980); Wilson et al., Journal of Urology, 149:653-658 (1993)). Samples are run on 10% polyacryamide/0.1% SDS gels containing 1% gelain orcasein, soaked in 2.5% triton at room temperature for 1 hour, and in 0.1M glycine, pH 8.3 at 37° C. 5 to 16 hours. After staining in amido black areas of proteolysis apear as clear areas agains the blue-black background. Trypsin (Sigma T8642) is used as a positive control.

[5] = test system: alpha-2-macroglobulin (α2-M); assay: Cleavage of α2-M by hADAM-19; type: biochemical, Bovine; conditions: 37° C.; new bands of 105 kDa and 72 kDa; dose-dependent
Procedure: The time course of hydrolysis of α2-M by hADAM-19 was examined. Ten μl of purified hADAM-19 (50 μg/ml) were mixed with 23.8 μl α2-M (0.2 unit)ml) in 66.24 μl 1× assay buffer (50 mM HEPES, pH 7.5, 0.2 M NaCl, 10 mM CaCl2, 25 μM ZnCl2 and 0.05% Brij-35) and incubated at 37° C. for 1-5 days. Trypsin was used as a positive control. The molar ratios between α2-M and hADAM-19 or trypsin were from 1:1 to 5:1. The samples were collected and boiled in SDS-PAGE sample buffer containing 5% 2-mercaptoethanol for 5-min, then loaded onto an 8% SDS-polyacrylamide gel. After electrophoresis the proteins were visualized by silver staining method.

[6] = test system: alpha-2-macroglobulin (α2-M); assay: Complex formation between hADAM-19 and α2-M (Western blot, anti-Flag); type: binding, Bovine; conditions: 37° C. for 16 h; Western blot with anti-Flag Ab
Procedure: Complex Formation Between hADAM-19 and α2-M Human ADAM-19 transient transfected supernatant was concentrated by about 10-fold in a 0.4 ml Ultrafree MC filter unit (Low Binding Regenerated Cellulose membrane, MW cutoff 10 kDa) from Millipore. 40 μl of the concentrated sample were mixed with TBSZ buffer (50 mM Tris.HCl, 150 mM NaCl, 5 μM ZnCl2) with or without α2-M protein (Roche Molecular Biochemicals, final concentration, 1 unit/ml) in a total 50 μl reaction volume and incubated at 37° C. for 16 h. The samples were boiled in Lamini sample buffer and loaded on a 4-12% percent Tris-Giycine gel. In the case of purified hADAM-19 protein, one to 10 μl of purified protein were incubated with α2-M protein in TBSZ buffer in a total of 50 μl reaction volume and incubated at 37° C. for 16 h. Anti-Flag M2 antibody (Ab), at 1 μg/ml concentration (Sigma), was used as primary Ab. Peroxidase-labelled goat anti-mouse Ab from Amersham Pharmacia Biotech was used as secondary Ab at 1:2000 dilution.

bovine casein = assay: Substrate specificity: casein; type: biochemical
Procedure: as §1

Cc1ccccc1CNC(=O)[C@H]1N(C(=O)[C@@H](O)[C@H](Cc2ccccc2)NC(=O)c2cccc(O)c2C)CSC1(C)C [AG-1776]
in vitro activity against protease inhibitor-resistant viruses [1]: in vitro activity against protease inhibitor-resistant viruses

Nc1ccn([C@H]2CO[C@@H](CO)S2)c(=O)n1 [dOTC]
activity against lamivudine-resistant isolates [2]: retains activity against a substantial proportion of lamivudine-resistant isolates

contortrostatin
inhibition of lung colonization of M24 cells (M24 cells): inhibits lung colonization | inhibition of M24 cell adhesion to laminin [3]: not laminin | inhibition of M24 cell adhesion to type I collagen, vitronectin, and fibronection [3]: inhibit

B1: Gene NO: 1: human ADAM polypeptide encoded by cDNA clone HDPDH32, homologous to murine metalloproteinase-disintegrin meltrin beta (protein, listed as Homo sapiens)
chain: MPGGAGAARLCLLAFALQPLRPRAAREPGWTRGSEEGSPKLQHELIIPQWKTSESPVREKHPLKAELRVMAEGRELILDLEKNEQLFAPSYTETHYTSSGNPQTTTRKLEDHCFYHGTVRETELSSVTLSTCRGIRGLITVSSNLSYVIEPLPDSKGQHLIYRSEHLKPPPGNCGFEHSKPTTRDWALQFTQQTKKRPRRMKREDLNSMKYVELYLVADYLEFQKNRRDQDATKHKLIEIANYVDKFYRSLNIRIALVGLEVWTHGNMCEVSENPYSTLWSFLSWRRKLLAQKYHDNAQLITGMSFHGTTIGLAPLMAMCSVYQSGGVNMDHSENAIGVAATMAHEMGHNFGMTHDSADCCSASAADGGCIMAAATGHPFPKVFNGCNRRELDRYLQSGGGMCLSNMPDTRMLYGGRRCGNGYLEDGEECDCGEEEECNNPCCNASNCTLRPGAECAHGSCCHQCKLLAPGTLCREQARQCDLPEFCTGKSPHCPTNFYQMDGTPCEGGQAYCYNGMCLTYQEQCQQLWGPGARPAPDLCFEKVNVAGDTFGNCGKDMNGEHRKCNMRDAKCGKIQCQSSEARPLESNAVPIDTTIIMNGRQIQCRGTHVYRGPEEEGDMLDPGLVMTGTKCGYNHICFEGQCRNTSFFETEGCGKKCNGHGVCNNNQNCHCLPGWAPPFCNTPGHGGSIDSGPMPPESVGPVVAGVLVAILVLAVLMLMYYCCRQNNKLGQLKPSALPSKLRQQFSCPFRVSQNSGTGHANPTFKLQTPQGKRKVINTPEILRKPSQPPPRPPPDYLRGGSPPAPLPAHLSRAARNSPGPGSQIERTESSRRPPPSRPIPPAPNCIVSQDFSRPRPPQKALPANPVPGRRSLPRPGGASPLRPPGAGPQQSRPLAALAPKFPEYRSQRAGGMISSKI
metal-dependant proteolysis of alpha-2 macroglobulin (alpha-2 macroglobulin): displayed metal-dependant proteolysis of alpha-2 macroglobulin

B2: hADAM-19: Flag-tagged hADAM-19 protein (residues 26-701 of SEQ ID NO: 9) purified from transfected 293T cells (protein, listed as Homo sapiens)
chain: REPGWTRGSEEGSPKLQHELIIPQWKTSESPVREKHPLKAELRVMAEGRELILDLEKNEQLFAPSYTETHYTSSGNPQTTTRKLEDHCFYHGTVRETELSSVTLSTCRGIRGLITVSSNLSYVIEPLPDSKGQHLIYRSEHLKPPPGNCGFEHSKPTTRDWALQFTQQTKKRPRRMKREDLNSMKYVELYLVADYLEFQKNRRDQDATKHKLIEIANYVDKFYRSLNIRIALVGLEVWTHGNMCEVSENPYSTLWSFLSWRRKLLAQKYHDNAQLITGMSFHGTTIGLAPLMAMCSVYQSGGVNMDHSENAIGVAATMAHEMGHNFGMTHDSADCCSASAADGGCIMAAATGHPFPKVFNGCNRRELDRYLQSGGGMCLSNMPDTRMLYGGRRCGNGYLEDGEECDCGEEEECNNPCCNASNCTLRPGAECAHGSCCHQCKLLAPGTLCREQARQCDLPEFCTGKSPHCPTNFYQMDGTPCEGGQAYCYNGMCLTYQEQCQQLWGPGARPAPDLCFEKVNVAGDTFGNCGKDMNGEHRKCNMRDAKCGKIQCQSSEARPLESNAVPIDTTIIMNGRQIQCRGTHVYRGPEEEGDMLDPGLVMTGTKCGYNHICFEGQCRNTSFFETEGCGKKCNGHGVCNNNQNCHCLPGWAPPFCNTPGHGGSIDSGPMPPESVG
modifications: Flag tag
dissolution of rat tail tendon type I gelatin [4]: not dissolved | cleavage of α2-M [5]: cleaved α2-M | complex formation with α2-M [6]: formed a complex of 170 kDa band with α2-M | dissolution of bovine casein (bovine casein): not dissolved
